# Measured values from ChEMBL document CHEMBL5370687 (ACS Med Chem Lett, 2023).
# Molecular target: T1, Protein-glutamine gamma-glutamyltransferase (Homo sapiens, UniProt P21980)
# T1 sequence (P21980 whole entry): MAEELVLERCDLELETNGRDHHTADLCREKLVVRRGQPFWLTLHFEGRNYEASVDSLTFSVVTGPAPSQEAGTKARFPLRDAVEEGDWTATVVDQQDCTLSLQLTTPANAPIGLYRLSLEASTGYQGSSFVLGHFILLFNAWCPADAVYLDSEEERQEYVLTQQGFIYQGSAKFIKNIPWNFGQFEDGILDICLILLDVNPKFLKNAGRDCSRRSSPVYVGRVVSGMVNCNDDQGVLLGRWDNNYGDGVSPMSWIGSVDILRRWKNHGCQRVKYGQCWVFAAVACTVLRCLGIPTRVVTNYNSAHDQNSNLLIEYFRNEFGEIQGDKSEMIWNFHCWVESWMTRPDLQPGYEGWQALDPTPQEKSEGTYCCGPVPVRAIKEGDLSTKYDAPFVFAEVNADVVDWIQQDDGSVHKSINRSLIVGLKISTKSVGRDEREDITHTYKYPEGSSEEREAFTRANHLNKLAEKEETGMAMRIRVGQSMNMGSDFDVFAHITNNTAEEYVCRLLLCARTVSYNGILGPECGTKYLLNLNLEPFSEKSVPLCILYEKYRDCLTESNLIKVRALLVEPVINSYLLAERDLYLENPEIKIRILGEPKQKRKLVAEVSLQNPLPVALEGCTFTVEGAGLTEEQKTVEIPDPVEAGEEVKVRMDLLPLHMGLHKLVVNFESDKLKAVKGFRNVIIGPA
# Assay: Inhibition of human recombinant His6-tagged TG2 expressed in insect cells assessed as reduction in incorporation of dansylcadaverine into N,N-dimethylcasein measured for 30 mins by fluorescence assay
# Set-up: species or system Insect cell
row,Compound,IC50 [nM]
1,CNC(=O)C(=O)CC[C@H](NC(=O)c1cc2c(Br)cccc2o1)C(=O)Nc1cccn(CC(=O)NC2C3CC4CC(C3)CC2C4)c1=O (stereo not given in full),≤ 25
2,CNC(=O)C(=O)CC[C@H](NC(=O)c1cc2ccccc2o1)C(=O)Nc1cccn(CC(=O)NC2C3CC4CC(C3)CC2C4)c1=O (stereo not given in full),≤ 25
3,CNC(=O)C(=O)CC[C@H](NC(=O)c1oc2ccccc2c1Cl)C(=O)Nc1cccn(CC(=O)NC2C3CC4CC(C3)CC2C4)c1=O (stereo not given in full),≤ 25
4,CNC(=O)C(=O)CC[C@H](NC(=O)c1cc2c(F)c(F)ccc2[nH]1)C(=O)Nc1cccn(CC(=O)NC2C3CC4CC(C3)CC2C4)c1=O (stereo not given in full),≤ 25
5,CNC(=O)C(=O)CC[C@H](NC(=O)c1cc2cc(Br)ccc2s1)C(=O)Nc1cccn(CC(=O)NC2C3CC4CC(C3)CC2C4)c1=O (stereo not given in full),≤ 25
6,CNC(=O)C(=O)CC[C@H](NC(=O)c1[nH]c2ccccc2c1C)C(=O)Nc1cccn(CC(=O)NC2C3CC4CC(C3)CC2C4)c1=O (stereo not given in full),< 250
7,CNC(=O)C(=O)CC[C@H](NC(=O)C1Cc2ccccc2C1)C(=O)Nc1cccn(CC(=O)NC2C3CC4CC(C3)CC2C4)c1=O (stereo not given in full),≤ 25
8,CNC(=O)C(=O)CC[C@H](NC(=O)c1cc2ccccc2[nH]1)C(=O)Nc1cccn(CC(=O)NC2C3CC4CC(C3)CC2C4)c1=O (stereo not given in full),≤ 25
9,CNC(=O)C(=O)CC[C@H](NC(=O)c1cc2cccc(F)c2s1)C(=O)Nc1cccn(CC(=O)NC2C3CC4CC(C3)CC2C4)c1=O (stereo not given in full),≤ 25
10,CNC(=O)C(=O)CC[C@H](NC(=O)c1cc2ccccc2s1)C(=O)Nc1cccn(CC(=O)NC2C3CC4CC(C3)CC2C4)c1=O (stereo not given in full),≤ 25
